From patent US9045486B2, “Pyrimidone derivatives and their use in the treatment, amelioration or prevention of a viral disease” (priority 2013, dated 2015)
pIC50: −log10 of the molar value.

What follows are compounds tested against T1, influenza A virus (IAV) PA-Nter fragment (amino acids 1-209) (Influenza A virus, UniProt P31343) (assay: FRET endonuclease activity assay). Details: 0.5 μM PA-Nter, 1.6 μM dual-labelled RNA substrate; IC50 from initial reaction velocities (v0).
T1 construct: PA-Nter fragment (amino acids 1-209); made in house
Format: biochemical
Work on `CC(C)N1CCn2c(Cc3ccccc3-c3ccccc3Cl)nc(=O)c(O)c2C1=O` yielded a pIC50 of 6.18. `O=C1NCCn2c(Cc3ccccc3-c3ccccc3)nc(=O)c(O)c21` showed a pIC50 of 7.22. Compound `CC(C)N1CCn2c(Cc3ccccc3-c3ccccc3)nc(=O)c(O)c2C1=O` has a pIC50 of 6.71. For `CN1CCn2c(Cc3ccccc3-c3ccccc3Cl)nc(=O)c(O)c2C1=O`, the pIC50 was 6.76. Work on `CN1CCn2c(CC3(c4ccccc4)CCCC3)nc(=O)c(O)c2C1=O` yielded a pIC50 of 6.94. In the case of `CC(C)N1CCn2c(CC3(c4ccccc4)CCCC3)nc(=O)c(O)c2C1=O`, the pIC50 was 7.03. `CN1CCn2c(CC3(c4ccc(Cl)cc4)CCCC3)nc(=O)c(O)c2C1=O` gave a pIC50 of 6.80. For `CC(C)N1CCn2c(CC3(c4ccc(Cl)cc4)CCCC3)nc(=O)c(O)c2C1=O`, the pIC50 was 6.60. Compound `CC(N1CCn2c(CC3(c4ccc(Cl)cc4)CCCC3)nc(=O)c(O)c2C1=O)C(F)(F)F` (stereo not shown) has a pIC50 of 6.53. `O=C1c2c(O)c(=O)nc(CC3(c4ccc(Cl)cc4)CCCC3)n2CCN1c1ccccc1` showed a pIC50 of 5.93. Work on `CC(C)N1CCn2c(Cc3cccc4ccccc34)nc(=O)c(O)c2C1=O` yielded a pIC50 of 5.74. For `CC(C)N1CCn2c(Cc3cccc(Cl)c3Cl)nc(=O)c(O)c2C1=O`, the pIC50 was 6.46. Compound `CC(C)N1CCn2c(Cc3ccccc3-c3cccc(Cl)c3Cl)nc(=O)c(O)c2C1=O` has a pIC50 of 6.43. With `CC(C)N1CCn2c(Cc3ccccc3-c3ccc(Cl)c(Cl)c3)nc(=O)c(O)c2C1=O` the pIC50 was 5.60. In the case of `CC(C)N1CCn2c(Cc3ccccc3-c3ccc(Cl)cc3)nc(=O)c(O)c2C1=O`, the pIC50 was 5.86. `COc1ccc(-c2ccccc2)c(Cc2nc(=O)c(O)c3n2CCN(C(C)C)C3=O)c1` gave a pIC50 of 6.37. For `CC(c1ccccc1-c1ccccc1)c1nc(=O)c(O)c2n1CCN(C(C)C)C2=O` (stereo not shown), the pIC50 was 5.77. `CC(C)N1CCn2c(Cc3cscc3-c3ccccc3)nc(=O)c(O)c2C1=O` showed a pIC50 of 5.86. With `CC(c1ccccc1)N1CCn2c(CC3(c4ccc(Cl)cc4)CCCC3)nc(=O)c(O)c2C1=O` (stereo not shown) the pIC50 was 5.95. In the case of `CC(C)N1CCn2c(CC(C)(C)c3ccccc3)nc(=O)c(O)c2C1=O`, the pIC50 was 6.60. For `CC(C)N1CCn2c(CC3(c4ccccc4)CCCCC3)nc(=O)c(O)c2C1=O`, the pIC50 was 6.92. `CC(C)N1CCn2c(CC3(c4ccc(Cl)c(Cl)c4)CCCC3)nc(=O)c(O)c2C1=O` was tested, and the pIC50 was 6.21. In the case of `CC(C)N1CCn2c(CC3(c4cccc(Cl)c4)CCCC3)nc(=O)c(O)c2C1=O`, the pIC50 was 6.49. Work on `CC(C)N1CCn2c(CC3(c4ccc5ccccc5c4)CCCC3)nc(=O)c(O)c2C1=O` yielded a pIC50 of 6.96. Work on `CC(C)N1CCn2c(Cc3ccccc3-c3cccc(F)c3F)nc(=O)c(O)c2C1=O` yielded a pIC50 of 6.70. `CC(C)N1CCn2c([C@@H]3CCC[C@@H]3c3ccccc3)nc(=O)c(O)c2C1=O` was tested, and the pIC50 was 6.30. `CC(C)N1CCn2c([C@H]3CCC[C@H]3c3ccccc3)nc(=O)c(O)c2C1=O` showed a pIC50 of 6.64. Work on `CC(C)N1CCn2c(CC(C)(C)n3ccc4ccccc43)nc(=O)c(O)c2C1=O` yielded a pIC50 of 6.62. With `CC(C)N1CCn2c(Cc3cc(O)ccc3-c3ccccc3)nc(=O)c(O)c2C1=O` the pIC50 was 6.84. In the case of `COc1ccc(-c2ccccc2Cc2nc(=O)c(O)c3n2CCN(C(C)C)C3=O)cc1`, the pIC50 was 6.91. Compound `CC(C)N1CCn2c(Cc3ccccc3C3CCCCC3)nc(=O)c(O)c2C1=O` has a pIC50 of 6.94. In the case of `CC(C)N1CCn2c(Cc3ccccc3-c3ccncc3)nc(=O)c(O)c2C1=O`, the pIC50 was 7.03. With `CC(C)N1CCn2c(Cc3ccccc3-c3cccc(F)c3)nc(=O)c(O)c2C1=O` the pIC50 was 6.42. `CC(C)N1CCn2c(Cc3ncccc3-c3ccccc3)nc(=O)c(O)c2C1=O` gave a pIC50 of 6.42. With `CC(C)N1CCn2c(Cc3ccccc3-c3ccc(F)c(F)c3)nc(=O)c(O)c2C1=O` the pIC50 was 5.97. In the case of `CC(C)c1ccc(-c2ccccc2Cc2nc(=O)c(O)c3n2CCN(C(C)C)C3=O)cc1`, the pIC50 was 6.15. In the case of `CC(C)N1CCn2c(Cc3ccccc3-c3ccc(F)cc3)nc(=O)c(O)c2C1=O`, the pIC50 was 5.81. Compound `CC(C)N1CCn2c(Cc3ccccc3-c3ccc(C#N)cc3)nc(=O)c(O)c2C1=O` has a pIC50 of 6.52. `CC(C)N1CCn2c(Cc3ccccc3-c3ccc(C(F)(F)F)c(F)c3)nc(=O)c(O)c2C1=O` was tested, and the pIC50 was 6.42. Compound `CC(C)N1CCn2c(Cc3ccccc3-c3ccc(C(F)(F)F)cc3)nc(=O)c(O)c2C1=O` has a pIC50 of 6.49. In the case of `CC(C)N1CCn2c(Cc3ccccc3-c3ccc(OC(F)(F)F)cc3)nc(=O)c(O)c2C1=O`, the pIC50 was 6.26. In the case of `CC(C)N1CCn2c(Cc3ccccc3-c3ccc4c(c3)OCO4)nc(=O)c(O)c2C1=O`, the pIC50 was 6.64. `O=C1c2c(O)c(=O)nc(CC3(c4ccccc4)CCCC3)n2CCN1C1CCCC1` gave a pIC50 of 6.28. `CSc1ccc(-c2ccccc2Cc2nc(=O)c(O)c3n2CCN(C(C)C)C3=O)cc1` was tested, and the pIC50 was 6.94. `O=C1c2c(O)c(=O)nc(CC3(c4ccccc4)CCCC3)n2CCN1C1CCC1` was tested, and the pIC50 was 6.99. With `CC(C)(C)CN1CCn2c(CC3(c4ccccc4)CCCC3)nc(=O)c(O)c2C1=O` the pIC50 was 6.84. Compound `O=C1c2c(O)c(=O)nc(CC3(c4ccccc4)CCCC3)n2CCN1CC1CC1` has a pIC50 of 6.86. `O=C1c2c(O)c(=O)nc(CC3(c4ccccc4)CCCC3)n2CCN1C1COC1` was tested, and the pIC50 was 6.87. `O=C1c2c(O)c(=O)nc(CC3(c4ccccc4)CCCC3)n2CCN1C1CC1` gave a pIC50 of 7.01. Compound `O=C1c2c(O)c(=O)nc(CC3(c4ccccc4)CCCC3)n2CCN1C1CCOCC1` has a pIC50 of 7.37. `O=C1c2c(OCc3ccccc3)c(=O)nc(CC3(c4ccccc4)CCCC3)n2CCN1C1CCOCC1` showed a pIC50 of less than 4.60. In the case of `CC(C)N1CCn2c(CC3(c4ccc(C#N)cc4)CCCC3)nc(=O)c(O)c2C1=O`, the pIC50 was 7.39. With `CC(C)N1CCn2c(CC3(c4cc(Cl)ccc4Cl)CCCC3)nc(=O)c(O)c2C1=O` the pIC50 was 6.53. Work on `CC(C)N1CCn2c(CC3(c4ccc(C(F)(F)F)cc4)CCCC3)nc(=O)c(O)c2C1=O` yielded a pIC50 of 6.58. Compound `CC(C)N1CCn2c(CC3(c4ccccc4)CCC(F)(F)CC3)nc(=O)c(O)c2C1=O` has a pIC50 of 7.08. `O=C1c2c(O)c(=O)nc(CC3(c4ccccc4)CCCC3)n2CCN1Cc1ccc(F)cc1` showed a pIC50 of 6.37. With `O=C1c2c(O)c(=O)nc(CC3(c4ccc(Cl)cc4)CCCC3)n2CCN1CC1CC1` the pIC50 was 6.69. Compound `O=C1c2c(OCc3ccccc3)c(=O)nc(CC3(c4ccc(Cl)cc4)CCCC3)n2CCN1CC1CC1` has a pIC50 of less than 4.60. In the case of `O=C1c2c(O)c(=O)nc(CC3(c4ccc(Cl)cc4)CCCC3)n2CCN1C1CC1`, the pIC50 was 6.14. `O=C1c2c(O)c(=O)nc(CC3(c4cccc5ccccc45)CCCC3)n2CCN1CC1CC1` showed a pIC50 of 6.85. `CN1CCn2c(CC3(c4cccc5ccccc45)CCCC3)nc(=O)c(O)c2C1=O` showed a pIC50 of 6.96. `O=C1c2c(O)c(=O)nc(CC3(c4ccc(Cl)cc4)CCCC3)n2CCN1C1CCOCC1` showed a pIC50 of 7.22. In the case of `O=C1c2c(O)c(=O)nc(CC3(c4cccc5ccccc45)CCCC3)n2CCN1C1CCOCC1`, the pIC50 was 6.96. `O=C1c2c(O)c(=O)nc(CC3(c4cccc5ccccc45)CCCC3)n2CCN1C1CC1` was tested, and the pIC50 was 6.98. Compound `O=C1c2c(O)c(=O)nc(CC3(c4cccc5ccccc45)CCCC3)n2CCN1C1COC1` has a pIC50 of less than 4.60. `O=C1c2c(O)c(=O)nc(CC3(c4cccc5ccccc45)CCCC3)n2CCN1Cc1ccccc1` was tested, and the pIC50 was 6.17. With `CN1CCn2c(CC3(n4ccc5cccnc54)CCCC3)nc(=O)c(O)c2C1=O` the pIC50 was 7.10. `CC(C)N1CCn2c(CC3(n4ccc5cccnc54)CCCC3)nc(=O)c(O)c2C1=O` gave a pIC50 of 7.70. With `O=C1c2c(O)c(=O)nc(CC3(n4ccc5cccnc54)CCCC3)n2CCN1CC1CC1` the pIC50 was 6.85. `O=C1c2c(OCc3ccccc3)c(=O)nc(CC3(n4ccc5cccnc54)CCCC3)n2CCN1CC1CC1` was tested, and the pIC50 was less than 4.60. In the case of `O=C1c2c(O)c(=O)nc(CC3(n4ccc5cccnc54)CCCC3)n2CCN1C1COC1`, the pIC50 was 6.97. `O=C1c2c(O)c(=O)nc(CC3(n4ccc5cccnc54)CCCC3)n2CCN1C1CC1` was tested, and the pIC50 was 7.04. `O=C1c2c(O)c(=O)nc(CC3(n4ccc5cccnc54)CCCC3)n2CCN1C1CCC1` showed a pIC50 of 6.76. Compound `CC(C)N1CCn2c(Cc3ccc(Cl)cc3-c3ccc(F)cc3)nc(=O)c(O)c2C1=O` has a pIC50 of 6.36. In the case of `CC(C)N1CCn2c(Cc3ccc(Cl)cc3-c3ccc(Cl)cc3)nc(=O)c(O)c2C1=O`, the pIC50 was 6.58. With `CC(C)N1CCn2c(Cc3ccc(Cl)cc3-c3cccc(F)c3)nc(=O)c(O)c2C1=O` the pIC50 was 7.24. With `CC(C)N1CCn2c(Cc3ccc(Cl)cc3-c3cccnc3)nc(=O)c(O)c2C1=O` the pIC50 was 7.09. For `CC(C)N1CCn2c(Cc3ccc(Cl)cc3-c3ccncc3)nc(=O)c(O)c2C1=O`, the pIC50 was 6.96. With `CC(C)N1CCn2c(Cc3ccc(Cl)cc3Br)nc(=O)c(OCc3ccccc3)c2C1=O` the pIC50 was less than 4.60. In the case of `CC(C)N1CCn2c(CC3(c4cccc5ccccc45)CCCC3)nc(=O)c(O)c2C1=O`, the pIC50 was 6.57. In the case of `CC(C)N1CCn2c(CC3(c4cc(C(F)(F)F)cc(C(F)(F)F)c4)CCCC3)nc(=O)c(O)c2C1=O`, the pIC50 was 6.50. For `CC(C)N1CCn2c(CC3(c4cccc(C(F)(F)F)c4)CCCC3)nc(=O)c(O)c2C1=O`, the pIC50 was 6.34. Compound `CC(C)N1CCn2c(-c3ccccn3)nc(=O)c(O)c2C1=O` has a pIC50 of 5.72. With `O=C1c2c(O)c(=O)nc(CC3(c4ccc(Cl)cc4)CCCC3)n2CCN1Cc1ccccc1` the pIC50 was 6.00. Compound `O=C1NCCn2c(CC3(c4ccc(Cl)cc4)CCCC3)nc(=O)c(O)c21` has a pIC50 of 5.90. Compound `CC(C)N1CCn2c(CC3(c4ccccn4)CCCC3)nc(=O)c(O)c2C1=O` has a pIC50 of 7.01. In the case of `CN1CCn2c(CC3(c4ccccn4)CCCC3)nc(=O)c(O)c2C1=O`, the pIC50 was 7.20. In the case of `CC(C)N1CCn2c(Cc3c(Cl)cccc3Cl)nc(=O)c(O)c2C1=O` [drawing 10], the pIC50 was 6.41. For `CC(C)N1CCn2c(Cc3c(Cl)cccc3Cl)nc(=O)c(O)c2C1=O` [drawing 18], the pIC50 was 6.41. `O=C1NCCn2c(CC3(c4cccc5ccccc45)CCCC3)nc(=O)c(O)c21` [drawing 712] gave a pIC50 of 6.79. Compound `O=C1NCCn2c(CC3(c4cccc5ccccc45)CCCC3)nc(=O)c(O)c21` [drawing 722] has a pIC50 of 6.80.
